Patent US4902712A, “Fluoroalkane derivatives” (Imperial Chemical Industries plc, priority 1985, dated 1990)

What was measured:
TXA2 [1] = test: TXA2 antagonist properties (general statement, standard tests); details: in words
Excerpt: (§1) As stated earlier, the compound of formula I is an antagonist of one or more of the actions of TXA2, for example certain of its actions on blood platelets, the vasculature and/or the lung.

[2] = test system: U46619 induced bronchoconstriction; test: Test (c): bronchoconstriction test, Konzett-Rossler anaesthetised guinea-pig model; assay type: in vivo; details: 2 hours after oral dosing at 0.005 mg/kg; ratio of U46619 concentration required to cause 50% bronchoconstriction in presence and absence of test compound
Excerpt: (c) a bronchoconstriction test involving measuring the inhibition by a test compound of the bronchoconstriction induced in the Konzett-Rossler, anaesthetised guinea-pig model (as modified by Collier and James, Brit. J. Pharmacol., 1967, 30, 283-307) by intravenous administration of the TXA2 mimetic agent, U46619 and involving:
(i) obtaining a cumulative dose-response curve to U46619 induced bronchoconstriction by intravenous administration of constant volumes of increasing concentrations of U46619 (0.2-4 ug/kg) in physiological saline solution and expressing bronchoconstriction as the maximum of that theoretically obtainable with no air flow to the test animal;
(ii) generating a cumulative dose-response curve to U46619 induced bronchoconstriction at 30 minute intervals for 3 hours after oral dosing of test compound; and
(iii) calculating a dose-ratio for the test compound (that is the ratio of concentration of U46619 required to cause 50% bronchoconstriction in the presence and absence of test compound) indicating the potency of TXA2 antagonism.

[3] = target: T1, U46619 stimulated platelet aggregation (Homo sapiens, UniProt P21731); test: Test (b): blood platelet aggregation test (Born), human citrated platelet-rich plasma; assay type: cell-based; details: averaged over several concentrations
T1 construct: aggregating human, citrated, platelet-rich plasma; endogenous in cells; host or cells: human platelets in citrated platelet-rich plasma
T1 sequence (P21731 1-343): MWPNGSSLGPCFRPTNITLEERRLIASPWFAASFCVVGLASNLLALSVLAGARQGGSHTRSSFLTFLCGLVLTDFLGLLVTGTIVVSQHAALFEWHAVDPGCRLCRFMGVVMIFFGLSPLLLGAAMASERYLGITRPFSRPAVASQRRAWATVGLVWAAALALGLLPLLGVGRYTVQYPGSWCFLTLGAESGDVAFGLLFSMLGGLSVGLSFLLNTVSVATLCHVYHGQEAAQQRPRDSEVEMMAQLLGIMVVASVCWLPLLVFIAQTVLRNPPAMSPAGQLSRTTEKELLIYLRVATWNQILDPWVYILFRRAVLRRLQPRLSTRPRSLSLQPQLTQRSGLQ
Excerpt: (b) a blood platelet aggregation test based on that described by Born (Nature, 1962, 194, 927-929) and involving:
(i) aggregating human, citrated, platelet-rich plasma by addition of the TXA2 mimetic agent U46619 so that a dose-response curve is generated;
(ii) generating a dose-response curve for U46619 stimulated platelet aggregation in the presence of increasing amounts of test compound (generally in the range 10^-5 M to 10^-10 M); and
(iii) calculating a KB value indicating potency of TXA2 antagonism for the test compound, averaged over several concentrations, from the calculated 50% response value for U46619 aggregation in the presence and absence of test compound; and […]

TXA2 [4] = test: Test (a): rabbit aortal strip model (Piper and Vane); assay type: cell-based; details: agonist TXA2 or U46619
Protocol: as §1
(a) The rabbit aortal strip model devised by Piper and Vane (Nature, 1969, 223, 29-35) using as agonist a freshly prepared sample of TXA2, generated by addition of arachidonic acid (25 μg) to citrated, platelet rich rabbit plasma (250 μl) and allowing the mixture to aggregate fully over 90 seconds before use; alternatively the TXA2 mimetic agent known as U46619 (described by R. L. Jones et alia in "Chemistry, Biochemistry and Pharmacological Activity of Prostanoids" edited by S. M. Roberts and F. Scheinmann, at page 211; Pergamon Press, 1979) may be used as the agonist;

[5] = test system: U46619 induced hypertension; test: Test (d): U46619 induced hypertension in anaesthetised rats; assay type: in vivo, rat (Alderley Park strain); details: 1 hour after an oral dose of 0.05 mg/kg
Protocol: (d) Male rats (Alderley Park strain) are anaesthetised with sodium pentobarbital and blood pressure is monitored at the carotid artery. The TXA2 mimetic agent U46619 is administered intravenously at 5 μg/kg via the jugular vein to produce a 20-30 mm Hg (2640-3970 pascal) increase in systolic blood pressure. The procedure is repeated twice to establish reproducibility of the effect. A test compound is then administered either intravenously (via the jugular vein) or orally (via a cannula) directly into the stomach and the animal is challenged with U46619, five minutes after dosing with test compound and then successively every ten minutes until the hypertensive effect of U46619 is no longer blocked.

SMILES	TXA2 antagonist properties (TXA2 [1])	dose ratio [2]	Kb [3] [nM]	pA2 (TXA2 [4])	inhibition of U46619 induced hypertension [5] [%]
COc1ccccc1[C@H]1O[C@@H](C(F)(F)F)OC[C@H]1C/C=C\CCC(=O)O (relative stereo) [4(Z)-6-([2,4,5-cis]-4-o-methoxyphenyl-2-trifluoromethyl-1,3-dioxan-5-yl)hexenoic acid]	also possess TXA2 antagonist properties	–	–	–	–
O=C(O)CCC/C=C\C[C@@H]1CO[C@H](C(F)(F)F)O[C@@H]1c1ccccc1 (relative stereo) [5(Z)-7-([2,4,5-cis]-4-phenyl-2-trifluoromethyl-1,3-dioxan-5-yl)heptenoic acid, reference compound]	significantly lower TXA2 antagonist properties	–	–	–	–
O=C(O)CC/C=C\C[C@@H]1CO[C@H](C(F)(F)F)O[C@@H]1c1ccccc1O (relative stereo) [compound of formula I, 4(Z)-6-([2,4,5-cis]-4-o-hydroxyphenyl-2-trifluoromethyl-1,3-dioxan-5-yl)hexenoic acid]	unexpectedly superior TXA2 antagonist properties	> 40	13.2	7.58±0.05	> 60
